# Data as given in ChEMBL document CHEMBL1143353, “Pyrazolo[1,5-a]-1,3,5-triazine as a purine bioisostere: access to potent cyclin-dependent kinase inhibitor (R)-roscovitine analogue” (J Med Chem, 2009).
# Legend:
# [1] = tested on: DU-145; experiment: cells; conditions: Homo sapiens, DU-145, 72 h
# Description: Antiproliferative activity against human DU145 cells after 72 hrs by ViaLight assay
# [2] = tested on: 786-0; experiment: cells; conditions: Homo sapiens, 786-0, 72 h
# Description: Antiproliferative activity against human 786-0 cells after 72 hrs by ViaLight assay
# [3] = tested on: HCT-116; experiment: cells; conditions: Homo sapiens, HCT-116, 72 h
# Description: Antiproliferative activity against human HCT116 cells after 72 hrs by ViaLight assay
# [4] = tested on: NCI-H23; experiment: cells; conditions: Homo sapiens, NCI-H23, 72 h
# Description: Antiproliferative activity against human NCI-H23 cells after 72 hrs by ViaLight assay
# [5] = tested on: LOX IMVI; experiment: cells; conditions: Homo sapiens, 72 h
# Description: Antiproliferative activity against human LOXIMVI cells after 72 hrs by ViaLight assay
# [6] = tested on: SK-OV-3; experiment: cells; conditions: Homo sapiens, SK-OV-3, 72 h
# Description: Antiproliferative activity against human SKOV3 cells after 72 hrs by ViaLight assay
# [7] = tested on: T47D; experiment: cells; conditions: Homo sapiens, 72 h
# Description: Antiproliferative activity against human T47D cells after 72 hrs by ViaLight assay
# [8] = tested on: TK-10; experiment: cells; conditions: Homo sapiens, TK-10, 72 h
# Description: Antiproliferative activity against human TK10 cells after 72 hrs by ViaLight assay
# [9] = tested on: A498; experiment: cells; conditions: Homo sapiens, A498, 72 h
# Description: Antiproliferative activity against human A498 cells after 72 hrs by ViaLight assay
# [10] = tested on: A549; experiment: cells; conditions: Homo sapiens, A549, 72 h
# Description: Antiproliferative activity against human A549 cells after 72 hrs by ViaLight assay
# [11] = tested on: OVCAR-5; experiment: cells; conditions: Homo sapiens, OVCAR-5, 72 h
# Description: Antiproliferative activity against human OVCAR5 cells after 72 hrs by ViaLight assay
# [12] = tested on: HOP-62; experiment: cells; conditions: Homo sapiens, HOP-62, 72 h
# Description: Antiproliferative activity against human HOP62 cells after 72 hrs by ViaLight assay
# [13] = tested on: MDA-MB-231; experiment: cells; conditions: Homo sapiens, MDA-MB-231, 72 h
# Description: Antiproliferative activity against human MDA-MB-231 cells after 72 hrs by ViaLight assay
# [14] = tested on: SK-MEL-5; experiment: cells; conditions: Homo sapiens, SK-MEL-5, 72 h
# Description: Antiproliferative activity against human SK-MEL-5 cells after 72 hrs by ViaLight assay
# [15] = tested on: MCF7; experiment: cells; conditions: Homo sapiens, MCF7, 72 h
# Description: Antiproliferative activity against human MCF7 cells after 72 hrs by ViaLight assay
# [16] = tested on: NCI-H522; experiment: cells; conditions: Homo sapiens, NCI-H522, 72 h
# Description: Antiproliferative activity against human NCI-H522 cells after 72 hrs by ViaLight assay
# [17] = tested on: CAKI-1; experiment: cells; conditions: Homo sapiens, CAKI-1, 72 h
# Description: Antiproliferative activity against human Caki1 cells after 72 hrs by ViaLight assay
# [18] = tested on: SNB-75; experiment: cells; conditions: Homo sapiens, SNB-75, 72 h
# Description: Antiproliferative activity against human SNB75 cells after 72 hrs by ViaLight assay
# [19] = tested on: RXF 393; experiment: cells; conditions: Homo sapiens, RXF 393, 72 h
# Description: Antiproliferative activity against human RFX393 cells after 72 hrs by ViaLight assay
# [20] = tested on: SH-SY5Y; experiment: Antiproliferative activity against human SH-SY5Y cells after 48 hrs by MTS reduction assay; type: functional, cell-based
# [21] = tested on: OVCAR-3; experiment: cells; conditions: Homo sapiens, OVCAR-3, 72 h
# Description: Antiproliferative activity against human OVCAR-3 cells after 72 hrs by ViaLight assay
# [22] = tested on: KM12; experiment: cells; conditions: Homo sapiens, KM12, 72 h
# Description: Antiproliferative activity against human KM12 cells after 72 hrs by ViaLight assay
# [23] = tested on: NCI-H460; experiment: cells; conditions: Homo sapiens, NCI-H460, 72 h
# Description: Antiproliferative activity against human NCI-H460 cells after 72 hrs by ViaLight assay
# [24] = tested on: ACHN; experiment: cells; conditions: Homo sapiens, 72 h
# Description: Antiproliferative activity against human ACHN cells after 72 hrs by ViaLight assay
# [25] = tested on: SK-MEL-2; experiment: cells; conditions: Homo sapiens, SK-MEL-2, 72 h
# Description: Antiproliferative activity against human SK-MEL-2 cells after 72 hrs by ViaLight assay
# [26] = tested on: PC-3; experiment: cells; conditions: Homo sapiens, PC-3, 72 h
# Description: Antiproliferative activity against human PC3 cells after 72 hrs by ViaLight assay
# [27] = cells; conditions: Homo sapiens, RPMI8266, 72 h
# Description: Antiproliferative activity against human RPMI8266 cells after 72 hrs by ViaLight assay
# [28] = tested on: SF-268; experiment: cells; conditions: Homo sapiens, SF-268, 72 h
# Description: Antiproliferative activity against human SF268 cells after 72 hrs by ViaLight assay
# [29] = tested on: EKVX; experiment: cells; conditions: Homo sapiens, 72 h
# Description: Antiproliferative activity against human EKVX cells after 72 hrs by ViaLight assay
structure (smiles),measurement,setting,value
CC[C@H](CO)Nc1nc(NCc2ccccc2)n2ncc(C(C)C)c2n1,GI50,[1],1.3 µM
same,TGI,[1],9.52 µM
same,CC50,[1]; read-out: LC50,> 100 µM
same,GI50,[1]; read-out: pGI50 (converted),2.63 µM
same,CC50,[1]; read-out: pLC50 (converted),100 µM
same,TGI,[1]; read-out: pTGI,9.55 µM
same,GI50,[2],1.98 µM
same,TGI,[2],10.7 µM
same,CC50,[2]; read-out: LC50,> 100 µM
same,GI50,[2]; read-out: pGI50 (converted),1.86 µM
same,CC50,[2]; read-out: pLC50 (converted),100 µM
same,TGI,[2]; read-out: pTGI,0.135 µM
same,GI50,[3],0.51 µM
same,TGI,[3],15 µM
same,CC50,[3]; read-out: LC50,> 100 µM
same,GI50,[3]; read-out: pGI50 (converted),0.513 µM
same,CC50,[3]; read-out: pLC50 (converted),100 µM
same,TGI,[3]; read-out: pTGI,15.1 µM
same,GI50,[4],1.71 µM
same,TGI,[4],7.79 µM
same,CC50,[4]; read-out: LC50,> 100 µM
same,GI50,[4]; read-out: pGI50 (converted),1.7 µM
same,CC50,[4]; read-out: pLC50 (converted),100 µM
same,TGI,[4]; read-out: pTGI,7.76 µM
same,GI50,[5],1.07 µM
same,TGI,[5],10.3 µM
same,CC50,[5]; read-out: LC50,34.4 µM
same,GI50,[5]; read-out: pGI50 (converted),1.07 µM
same,CC50,[5]; read-out: pLC50 (converted),34.7 µM
same,TGI,[5]; read-out: pTGI,10.2 µM
same,GI50,[6],5.55 µM
same,TGI,[6],40.2 µM
same,CC50,[6]; read-out: LC50,> 100 µM
same,GI50,[6]; read-out: pGI50 (converted),5.5 µM
same,CC50,[6]; read-out: pLC50 (converted),100 µM
same,TGI,[6]; read-out: pTGI,39.8 µM
same,GI50,[7],2.48 µM
same,TGI,[7],13.3 µM
same,CC50,[7]; read-out: LC50,> 100 µM
same,GI50,[7]; read-out: pGI50 (converted),3.09 µM
same,CC50,[7]; read-out: pLC50 (converted),100 µM
same,TGI,[7]; read-out: pTGI,12.9 µM
same,GI50,[8],2 µM
same,TGI,[8],10.9 µM
same,CC50,[8]; read-out: LC50,> 100 µM
same,GI50,[8]; read-out: pGI50 (converted),2 µM
same,CC50,[8]; read-out: pLC50 (converted),100 µM
same,TGI,[8]; read-out: pTGI,11 µM
same,GI50,[9],1.25 µM
same,TGI,[9],3.44 µM
same,CC50,[9]; read-out: LC50,9.47 µM
same,GI50,[9]; read-out: pGI50 (converted),1.12 µM
same,CC50,[9]; read-out: pLC50 (converted),9.55 µM
same,TGI,[9]; read-out: pTGI,3.31 µM
same,GI50,[10],1.58 µM
same,TGI,[10],41.4 µM
same,CC50,[10]; read-out: LC50,> 100 µM
same,GI50,[10]; read-out: pGI50 (converted),2.51 µM
same,CC50,[10]; read-out: pLC50 (converted),100 µM
same,TGI,[10]; read-out: pTGI,41.7 µM
same,GI50,[11],1.85 µM
same,TGI,[11],15 µM
same,CC50,[11]; read-out: LC50,> 100 µM
same,GI50,[11]; read-out: pGI50 (converted),1.78 µM
same,CC50,[11]; read-out: pLC50 (converted),100 µM
same,TGI,[11]; read-out: pTGI,15.1 µM
same,GI50,[12],2.1 µM
same,TGI,[12],8.72 µM
same,CC50,[12]; read-out: LC50,> 100 µM
same,GI50,[12]; read-out: pGI50 (converted),2.09 µM
same,CC50,[12]; read-out: pLC50 (converted),100 µM
same,TGI,[12]; read-out: pTGI,1.1 µM
same,GI50,[13],2.37 µM
same,TGI,[13],9.47 µM
same,CC50,[13]; read-out: LC50,> 100 µM
same,GI50,[13]; read-out: pGI50 (converted),2.4 µM
same,CC50,[13]; read-out: pLC50 (converted),100 µM
same,TGI,[13]; read-out: pTGI,9.55 µM
same,GI50,[14],1.78 µM
same,TGI,[14],4.96 µM
same,CC50,[14]; read-out: LC50,17.4 µM
same,GI50,[14]; read-out: pGI50 (converted),1.78 µM
same,CC50,[14]; read-out: pLC50 (converted),17.4 µM
same,TGI,[14]; read-out: pTGI,5.01 µM
same,GI50,[15],0.59 µM
same,TGI,[15],7.99 µM
same,CC50,[15]; read-out: LC50,> 100 µM
same,GI50,[15]; read-out: pGI50 (converted),0.589 µM
same,CC50,[15]; read-out: pLC50 (converted),100 µM
same,TGI,[15]; read-out: pTGI,7.94 µM
same,GI50,[16],1.46 µM
same,TGI,[16],8.98 µM
same,CC50,[16]; read-out: LC50,> 100 µM
same,GI50,[16]; read-out: pGI50 (converted),1.45 µM
same,CC50,[16]; read-out: pLC50 (converted),100 µM
same,TGI,[16]; read-out: pTGI,8.91 µM
same,GI50,[17],1.02 µM
same,TGI,[17],8.35 µM
same,CC50,[17]; read-out: LC50,> 100 µM
same,GI50,[17]; read-out: pGI50 (converted),1.05 µM
same,CC50,[17]; read-out: pLC50 (converted),100 µM
same,TGI,[17]; read-out: pTGI,8.13 µM
same,GI50,[18],1.31 µM
same,TGI,[18],3.33 µM
same,CC50,[18]; read-out: LC50,8.48 µM
same,GI50,[18]; read-out: pGI50 (converted),1.32 µM
same,CC50,[18]; read-out: pLC50 (converted),8.51 µM
same,TGI,[18]; read-out: pTGI,3.31 µM
same,GI50,[19],0.25 µM
same,TGI,[19],0.79 µM
same,CC50,[19]; read-out: LC50,4.25 µM
same,GI50,[19]; read-out: pGI50 (converted),0.251 µM
same,CC50,[19]; read-out: pLC50 (converted),4.27 µM
same,TGI,[19]; read-out: pTGI,0.794 µM
same,IC50,[20],2.7 µM
same,GI50,[21],1.15 µM
same,TGI,[21],4.6 µM
same,CC50,[21]; read-out: LC50,42.4 µM
same,GI50,[21]; read-out: pGI50 (converted),1.45 µM
same,CC50,[21]; read-out: pLC50 (converted),42.7 µM
same,TGI,[21]; read-out: pTGI,4.57 µM
same,GI50,[22],0.71 µM
same,TGI,[22],2.79 µM
same,CC50,[22]; read-out: LC50,9.3 µM
same,GI50,[22]; read-out: pGI50 (converted),0.708 µM
same,CC50,[22]; read-out: pLC50 (converted),9.77 µM
same,TGI,[22]; read-out: pTGI,2.82 µM
same,GI50,[23],1.05 µM
same,TGI,[23],10.9 µM
same,CC50,[23]; read-out: LC50,> 100 µM
same,GI50,[23]; read-out: pGI50 (converted),1.05 µM
same,CC50,[23]; read-out: pLC50 (converted),100 µM
same,TGI,[23]; read-out: pTGI,11 µM
same,GI50,[24],0.81 µM
same,TGI,[24],10.7 µM
same,CC50,[24]; read-out: LC50,49.1 µM
same,GI50,[24]; read-out: pGI50 (converted),0.813 µM
same,CC50,[24]; read-out: pLC50 (converted),49 µM
same,TGI,[24]; read-out: pTGI,10.7 µM
same,GI50,[25],1.47 µM
same,TGI,[25],6 µM
same,CC50,[25]; read-out: LC50,> 100 µM
same,GI50,[25]; read-out: pGI50 (converted),1.48 µM
same,CC50,[25]; read-out: pLC50 (converted),100 µM
same,TGI,[25]; read-out: pTGI,6.03 µM
same,GI50,[26],0.93 µM
same,TGI,[26],12.3 µM
same,CC50,[26]; read-out: LC50,> 100 µM
same,GI50,[26]; read-out: pGI50 (converted),0.117 µM
same,CC50,[26]; read-out: pLC50 (converted),100 µM
same,TGI,[26]; read-out: pTGI,0.123 µM
same,GI50,[27],2.23 µM
same,TGI,[27],6.93 µM
same,CC50,[27]; read-out: LC50,> 100 µM
same,GI50,[27]; read-out: pGI50 (converted),2.24 µM
same,CC50,[27]; read-out: pLC50 (converted),100 µM
same,TGI,[27]; read-out: pTGI,6.92 µM
same,GI50,[28],1.82 µM
same,TGI,[28],7.2 µM
same,CC50,[28]; read-out: LC50,> 100 µM
same,GI50,[28]; read-out: pGI50 (converted),1.82 µM
same,CC50,[28]; read-out: pLC50 (converted),100 µM
same,TGI,[28]; read-out: pTGI,7.24 µM
same,GI50,[29],2.41 µM
same,TGI,[29],9.13 µM
same,GI50,[29]; read-out: pGI50 (converted),2.4 µM
same,TGI,[29]; read-out: pTGI,9.12 µM
